Legend:
Type in all cases: cell-based
SMARCA2 = molecular target: T1, SMARCA2 (Homo sapiens, UniProt P51531); assay: SMARCA2 degradation in VCaP cells by Western blot; details: 16 hours
T1 construct: Determination of SMARCA2 and SMARCA4 Degradation in VCaP Cells by Western Blot; endogenous in cells; host or cells: VCaP (ATCC CRL-2876)
Method: Example-P2: Determination of SMARCA2 and SMARCA4 Degradation in VCaP Cells by Western Blot
VCaP (ATCC CRL-2876) was plated in 6 well plates using complete Dulbecco's Modified Eagle's Medium. On the third day, compounds of present invention were added to cells from 10 mM stocks made in DMSO (Sigma Cat no. D2650). Each concentration of compound was tested with DMSO not exceeding final percentage of 0.3 in the cells. Cells were incubated with the compound for 16 hours followed by harvesting with 1×RIPA lysis buffer (Thermo Fischer, catalogue number #89900) containing protease inhibitor cocktail (Sigma catalogue number #P-8340). Equal amount of protein was loaded on SDS PAGE gel for electrophoresis. Western blot was carried out for detection of either SMARCA2 (Cell signalling technologies, catalogue number #11966) or SMARCA4 antibody (Cell signalling technologies, catalogue number #52251). Beta-Tubulin antibody (Cell signalling technologies, catalogue number #86298) was used as loading control. Percentage of SMARCA2 or SMARCA4 degradation was calculated using formula % Degradation=100−(normalized band intensity in treated sample/normalized band intensity in DMSO sample)*100.

SMARCA4 = molecular target: T2, SMARCA4 (Homo sapiens, UniProt P51532); assay: SMARCA4 degradation in VCaP cells by Western blot; details: 16 hours
T2 construct: Determination of SMARCA2 and SMARCA4 Degradation in VCaP Cells by Western Blot; endogenous in cells; host or cells: VCaP (ATCC CRL-2876)
Method: On the third day, compounds of present invention were added to cells from 10 mM stocks made in DMSO (Sigma Cat no. D2650). Each concentration of compound was tested with DMSO not exceeding final percentage of 0.3 in the cells. […] Equal amount of protein was loaded on SDS PAGE gel for electrophoresis. […] Percentage of SMARCA2 or SMARCA4 degradation was calculated using formula % Degradation=100−(normalized band intensity in treated sample/normalized band intensity in DMSO sample)*100.

SK-MEL-5 cells = assay: Anti proliferative activity, Cell Titer Glo assay, SK-MEL-5; details: Homo sapiens, retreatment Day 4, terminated day 8, CellTiter-Glo
Method: Example-P3: Determination of Anti Proliferative Activity of Compounds by Cell Titer Glo®(Promega) Assay
Cells were seeded into 96-well plates and the plate was incubated in 37 degrees incubator overnight. The next day, compounds were diluted 3-fold to cover 9-point concentration range in DMSO. Intermediate plate dilution was prepared in media followed with compound treatment in cells. Retreatment of cells with compound dilutions was performed on Day 4 and assay was terminated on day 8 for SK-MEL-5 cells using CellTiter-Glo and the plate was kept on orbital shaker for 20 minutes at RT. Assay was terminated on day 6 for RERF-LC-A1 without a compound retreatment. Luminescence signal was recorded on VICTOR^3 instrument. Percent inhibition of proliferation was calculated at each concentration and plotted against the compound concentration. EC50 value was calculated using GraphPad software.

T1 sequence (P51531 whole entry): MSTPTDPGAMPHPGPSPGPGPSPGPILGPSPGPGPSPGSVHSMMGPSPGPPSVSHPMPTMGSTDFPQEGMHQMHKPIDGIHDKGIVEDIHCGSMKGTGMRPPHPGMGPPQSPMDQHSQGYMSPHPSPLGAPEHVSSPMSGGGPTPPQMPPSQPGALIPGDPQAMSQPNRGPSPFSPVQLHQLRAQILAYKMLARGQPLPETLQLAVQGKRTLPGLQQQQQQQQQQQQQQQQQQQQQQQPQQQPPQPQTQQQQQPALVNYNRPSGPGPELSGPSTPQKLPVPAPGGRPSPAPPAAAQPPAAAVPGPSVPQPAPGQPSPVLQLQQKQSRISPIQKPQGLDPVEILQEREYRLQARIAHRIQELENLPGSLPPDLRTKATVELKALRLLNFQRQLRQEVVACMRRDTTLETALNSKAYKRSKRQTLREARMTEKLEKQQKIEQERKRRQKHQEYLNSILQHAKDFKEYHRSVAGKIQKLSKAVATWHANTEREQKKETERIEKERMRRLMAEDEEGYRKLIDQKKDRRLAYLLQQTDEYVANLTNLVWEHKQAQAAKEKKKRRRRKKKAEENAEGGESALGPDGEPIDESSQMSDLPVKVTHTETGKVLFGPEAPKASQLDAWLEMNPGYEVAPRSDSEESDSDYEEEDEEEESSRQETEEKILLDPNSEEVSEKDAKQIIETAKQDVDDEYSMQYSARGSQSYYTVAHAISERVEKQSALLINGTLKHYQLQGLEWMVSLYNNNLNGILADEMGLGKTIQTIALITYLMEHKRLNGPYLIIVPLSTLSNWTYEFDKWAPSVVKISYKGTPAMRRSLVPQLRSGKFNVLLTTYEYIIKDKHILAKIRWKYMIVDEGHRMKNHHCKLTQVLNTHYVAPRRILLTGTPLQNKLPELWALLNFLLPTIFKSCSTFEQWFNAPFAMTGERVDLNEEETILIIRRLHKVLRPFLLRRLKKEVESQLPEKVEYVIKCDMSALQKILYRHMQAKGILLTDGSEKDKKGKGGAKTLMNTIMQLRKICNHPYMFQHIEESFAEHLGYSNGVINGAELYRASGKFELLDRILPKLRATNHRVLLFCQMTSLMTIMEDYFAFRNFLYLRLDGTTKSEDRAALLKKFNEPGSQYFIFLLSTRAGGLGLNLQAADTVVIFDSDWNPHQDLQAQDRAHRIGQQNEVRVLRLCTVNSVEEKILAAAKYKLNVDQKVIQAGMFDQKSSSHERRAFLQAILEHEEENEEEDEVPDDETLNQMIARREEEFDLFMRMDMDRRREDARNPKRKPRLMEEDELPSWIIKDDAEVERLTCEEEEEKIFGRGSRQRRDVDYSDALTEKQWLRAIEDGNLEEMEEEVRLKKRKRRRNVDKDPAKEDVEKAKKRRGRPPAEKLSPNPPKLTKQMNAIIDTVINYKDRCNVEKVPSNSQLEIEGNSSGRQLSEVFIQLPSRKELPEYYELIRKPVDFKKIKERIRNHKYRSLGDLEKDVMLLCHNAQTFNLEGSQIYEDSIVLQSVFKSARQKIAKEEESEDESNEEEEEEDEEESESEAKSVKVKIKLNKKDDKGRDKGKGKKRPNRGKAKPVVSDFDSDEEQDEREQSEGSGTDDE
T2 sequence (P51532 whole entry): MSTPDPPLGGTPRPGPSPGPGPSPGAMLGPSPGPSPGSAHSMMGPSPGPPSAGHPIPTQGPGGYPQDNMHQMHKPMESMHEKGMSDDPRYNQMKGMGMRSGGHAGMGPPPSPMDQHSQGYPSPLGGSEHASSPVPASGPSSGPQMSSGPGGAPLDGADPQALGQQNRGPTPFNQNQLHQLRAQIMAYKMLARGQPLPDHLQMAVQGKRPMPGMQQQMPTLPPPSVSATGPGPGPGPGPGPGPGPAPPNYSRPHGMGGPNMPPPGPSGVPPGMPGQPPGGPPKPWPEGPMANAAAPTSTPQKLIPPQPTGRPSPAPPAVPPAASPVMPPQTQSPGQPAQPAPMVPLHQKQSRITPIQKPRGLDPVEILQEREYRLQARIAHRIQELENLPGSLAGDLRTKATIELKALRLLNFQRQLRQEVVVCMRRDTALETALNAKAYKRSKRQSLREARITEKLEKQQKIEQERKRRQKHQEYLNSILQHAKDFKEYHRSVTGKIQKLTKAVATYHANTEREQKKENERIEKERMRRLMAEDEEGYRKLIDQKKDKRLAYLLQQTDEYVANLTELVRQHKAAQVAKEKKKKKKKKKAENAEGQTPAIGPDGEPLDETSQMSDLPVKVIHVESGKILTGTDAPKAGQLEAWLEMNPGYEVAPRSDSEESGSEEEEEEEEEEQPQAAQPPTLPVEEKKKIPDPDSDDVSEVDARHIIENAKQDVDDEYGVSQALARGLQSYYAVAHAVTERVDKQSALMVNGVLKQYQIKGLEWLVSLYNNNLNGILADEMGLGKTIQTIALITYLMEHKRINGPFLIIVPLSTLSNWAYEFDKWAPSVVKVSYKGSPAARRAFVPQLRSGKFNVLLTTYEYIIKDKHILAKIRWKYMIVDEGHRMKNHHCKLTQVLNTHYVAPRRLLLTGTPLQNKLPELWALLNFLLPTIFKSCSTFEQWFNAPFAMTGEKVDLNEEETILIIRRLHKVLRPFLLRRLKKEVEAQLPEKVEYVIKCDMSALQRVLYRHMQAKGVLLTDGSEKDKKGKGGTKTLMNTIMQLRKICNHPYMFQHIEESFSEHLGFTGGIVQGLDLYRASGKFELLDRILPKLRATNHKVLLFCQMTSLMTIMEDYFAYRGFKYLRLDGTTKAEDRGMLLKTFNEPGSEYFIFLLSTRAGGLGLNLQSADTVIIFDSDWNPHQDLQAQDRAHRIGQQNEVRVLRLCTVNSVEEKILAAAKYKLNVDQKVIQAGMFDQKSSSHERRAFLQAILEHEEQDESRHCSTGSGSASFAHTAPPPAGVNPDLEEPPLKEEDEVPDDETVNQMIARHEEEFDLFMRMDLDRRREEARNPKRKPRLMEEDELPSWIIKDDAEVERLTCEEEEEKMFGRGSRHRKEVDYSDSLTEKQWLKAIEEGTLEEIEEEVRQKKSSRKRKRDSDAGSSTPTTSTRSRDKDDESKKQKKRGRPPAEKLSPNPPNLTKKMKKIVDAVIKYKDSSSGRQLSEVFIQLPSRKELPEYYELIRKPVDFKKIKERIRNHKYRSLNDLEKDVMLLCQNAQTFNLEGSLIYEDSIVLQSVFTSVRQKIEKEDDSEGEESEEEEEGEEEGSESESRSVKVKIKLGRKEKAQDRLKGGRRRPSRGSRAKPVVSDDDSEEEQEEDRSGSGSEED

SMILES | Percent degradation (at 100 nM) SMARCA2 (SMARCA2) [%] | Percent degradation (at 100 nM) SMARCA4 (SMARCA4) [%] | EC50 (SK-MEL-5 cells; SK-MEL-5, SK-MEL-5 cells) [µM] | EC50 (SK-MEL-5 cells; SK-MEL-5 cells) [µM]
Cc1ncsc1-c1ccc([C@H](C)NC(=O)[C@@H]2C[C@@H](O)CN2C(=O)[C@@H](NC(=O)CN2CCC(c3ccc(-c4cnnc(-c5cc(F)ccc5O)c4)cc3)CC2)C(C)(C)C)cc1 [Compound 13, (2S,4R)-1-((S)-2-(2-(4-(4-(6-(5-fluoro-2-hydroxyphenyl)pyridazin-4-yl)phenyl)piperidin-1-yl)acetamido)-3,3-dimethylbutanoyl)-4-hydroxy-N-((S)-1-(4-(4-methylthiazol-5-yl)phenyl)ethyl)pyrrolidine-2-carboxamide] | 17 | 0 | > 0.5 | –
Cc1ncsc1-c1ccc([C@H](C)NC(=O)[C@@H]2C[C@@H](O)CN2C(=O)[C@@H](NC(=O)CN2CCC(c3ccc(-c4cnnc(-c5ccccc5O)c4)cc3F)CC2)C(C)(C)C)cc1 [Compound 15, (2S,4R)-1-((S)-2-(2-(4-(2-fluoro-4-(6-(2-hydroxyphenyl)pyridazin-4-yl)phenyl)piperidin-1-yl)acetamido)-3,3-dimethylbutanoyl)-4-hydroxy-N-((S)-1-(4-(4-methylthiazol-5-yl)phenyl)ethyl)pyrrolidine-2-carboxamide] | 60 | 0 | > 0.5 | –
Cc1ncsc1-c1ccc([C@H](C)NC(=O)[C@@H]2C[C@@H](O)CN2C(=O)[C@@H](NC(=O)C2CCN(c3ccc(-c4cnnc(-c5ccccc5O)c4)cc3)CC2)C(C)(C)C)cc1 [Compound 16, N-((S)-1-((2S,4R)-4-hydroxy-2-(((S)-1-(4-(4-methylthiazol-5-yl)phenyl)ethyl)carbamoyl)pyrrolidin-1-yl)-3,3-dimethyl-1-oxobutan-2-yl)-1-(4-(6-(2-hydroxyphenyl)pyridazin-4-yl)phenyl)piperidine-4-carboxamide] | 76 | 0 | < 0.25 | –
Cc1ncsc1-c1ccc([C@H](C)NC(=O)[C@@H]2C[C@@H](O)CN2C(=O)[C@@H](NC(=O)CC2CCC(c3ccc(-c4cnnc(-c5ccccc5O)c4)cc3)CC2)C(C)(C)C)cc1 (stereo partly drawn) [Compound 17, (2S,4R)-4-hydroxy-1-((S)-2-(2-(4-(4-(6-(2-hydroxyphenyl)pyridazin-4-yl)phenyl)cyclohexyl)acetamido)-3,3-dimethylbutanoyl)-N-((S)-1-(4-(4-methylthiazol-5-yl)phenyl)ethyl)pyrrolidine-2-carboxamide] | – | – | > 0.5 | –
Cc1ncsc1-c1ccc([C@H](C)NC(=O)[C@@H]2C[C@@H](O)CN2C(=O)[C@@H](NC(=O)C2CCC(c3ccc(-c4cnnc(-c5ccccc5O)c4)cc3)CC2)C(C)(C)C)cc1 (stereo partly drawn) [Compound 18, (2S,4R)-4-hydroxy-1-((S)-2-(4-(4-(6-(2-hydroxyphenyl)pyridazin-4-yl)phenyl)cyclohexane-1-carboxamido)-3,3-dimethylbutanoyl)-N-((S)-1-(4-(4-methylthiazol-5-yl)phenyl)ethyl)pyrrolidine-2-carboxamide] | 95 | 0 | < 0.25 | –
Cc1ncsc1-c1ccc([C@H](C)NC(=O)[C@@H]2C[C@@H](O)CN2C(=O)[C@@H](NC(=O)CN2CCCC(c3ccc(-c4cnnc(-c5ccccc5O)c4)cc3)C2)C(C)(C)C)cc1 (stereo partly drawn) [Compound 20, (2S,4R)-4-hydroxy-1-((2S)-2-(2-(3-(4-(6-(2-hydroxyphenyl)pyridazin-4-yl)phenyl)piperidin-1-yl)acetamido)-3,3-dimethylbutanoyl)-N-((S)-1-(4-(4-methylthiazol-5-yl)phenyl)ethyl)pyrrolidine-2-carboxamide] | 41 | 0 | 0.25 to 0.5 | –
Cc1ncsc1-c1ccc([C@H](C)NC(=O)[C@@H]2C[C@@H](O)CN2C(=O)[C@@H](NC(=O)CN2CCC(Nc3ccc(-c4cnnc(-c5ccccc5O)c4)cc3)CC2)C(C)(C)C)cc1 [Compound 45, (2S,4R)-4-hydroxy-1-((S)-2-(2-(4-((4-(6-(2-hydroxyphenyl)pyridazin-4-yl)phenyl)amino)piperidin-1-yl)acetamido)-3,3-dimethylbutanoyl)-N-((S)-1-(4-(4-methylthiazol-5-yl)phenyl)ethyl)pyrrolidine-2-carboxamide] | 94 | – | – | < 0.25

The next lines start with results.

Percent degradation (at 100 nM) SMARCA2 (SMARCA2) [%] | Percent degradation (at 100 nM) SMARCA4 (SMARCA4) [%] | EC50 (SK-MEL-5 cells; SK-MEL-5, SK-MEL-5 cells) [µM] | SMILES | EC50 (SK-MEL-5 cells; SK-MEL-5 cells) [µM]
79 | 0 | < 0.25 | Cc1ncsc1-c1ccc([C@H](C)NC(=O)[C@@H]2C[C@@H](O)CN2C(=O)[C@@H](NC(=O)C(C)N2CCN(c3ccc(-c4cnnc(-c5ccccc5O)c4)cc3)CC2)C(C)(C)C)cc1 (single isomer, unassigned) [Compound 30] | –
– | – | > 0.5 | Cc1ncsc1-c1ccc([C@H](C)NC(=O)[C@@H]2C[C@@H](O)CN2C(=O)[C@@H](NC(=O)CN2CCC(c3ccc(-c4cnnc(-c5ccccc5O)c4)cc3)C2)C(C)(C)C)cc1 (stereo partly drawn) [Compound 22, (2S,4R)-4-hydroxy-1-((2S)-2-(2-(3-(4-(6-(2-hydroxyphenyl)pyridazin-4-yl)phenyl)pyrrolidin-1-yl)acetamido)-3,3-dimethylbutanoyl)-N-((S)-1-(4-(4-methylthiazol-5-yl)phenyl)ethyl)pyrrolidine-2-carboxamide] | –
– | – | > 0.5 | Cc1ncsc1-c1ccc([C@H](C)NC(=O)[C@@H]2C[C@@H](O)CN2C(=O)[C@@H](NC(=O)CN2CCC(c3ccc(-c4cnnc(-c5ccccc5O)c4)cn3)CC2)C(C)(C)C)cc1 [Compound 27, (2S,4R)-4-hydroxy-1-((S)-2-(2-(4-(5-(6-(2-hydroxyphenyl)pyridazin-4-yl)pyridin-2-yl)piperidin-1-yl)acetamido)-3,3-dimethylbutanoyl)-N-((S)-1-(4-(4-methylthiazol-5-yl)phenyl)ethyl)pyrrolidine-2-carboxamide] | –
90 | 21 | – | Cc1ncsc1-c1ccc([C@H](CO)NC(=O)[C@@H]2C[C@@H](O)CN2C(=O)[C@@H](NC(=O)CN2CCN(c3ccc(-c4cnnc(-c5ccccc5O)c4)cc3)CC2)C(C)(C)C)cc1 [Compound 48, (2S,4R)-4-hydroxy-N-((R)-2-hydroxy-1-(4-(4-methylthiazol-5-yl)phenyl)ethyl)-1-((S)-2-(2-(4-(4-(6-(2-hydroxyphenyl)pyridazin-4-yl)phenyl)piperazin-1-yl)acetamido)-3,3-dimethylbutanoyl)pyrrolidine-2-carboxamide] | –
93 | 48 | – | Cc1ncsc1-c1ccc(C(CN(C)C)NC(=O)[C@@H]2C[C@@H](O)CN2C(=O)[C@@H](NC(=O)CN2CCN(c3ccc(-c4cnnc(-c5ccccc5O)c4)cc3)CC2)C(C)(C)C)cc1 (stereo partly drawn) [Compound 49, (2S,4R)-N-(2-(dimethylamino)-1-(4-(4-methylthiazol-5-yl)phenyl)ethyl)-4-hydroxy-1-((S)-2-(2-(4-(4-(6-(2-hydroxyphenyl)pyridazin-4-yl)phenyl)piperazin-1-yl)acetamido)-3,3-dimethylbutanoyl)pyrrolidine-2-carboxamide] | –

— patent US12570650B2, “6-substituted pyridazine compounds as SMARCA2 and/or SMARCA4 degraders” (Aurigene Oncology Limited, priority 2020, dated 2026)
